# Values of other authors in patent publication US20060009656A1, “METHOD OF PRODUCING BETAINE COMPOUND” (priority 2004, published 2006).
# Structures can show the parent of a compound that is named as a salt.
# Details: as methyl supplier in feed
smiles,measurement,setting,value
"C[N+](C)(C)CC(=O)O [Betaine anhydrous, 2-(Trimethylammonio) ethanoic acid, hydroxide, inner salt]",effective value of organism relative to 50% choline chloride,relative to 50% choline chloride,1.8 times
same,effective value of organism relative to DL-methionine,relative to DL-methionine,3 times
